Data: ChEMBL document CHEMBL3352299, “Antiproliferative 4-(1,2,4-oxadiazol-5-yl)piperidine-1-carboxamides, a new tubulin inhibitor chemotype” (Bioorg Med Chem Lett, 2014)

Key:
Format in all cases: functional
[1] = Antiproliferative activity against human UACC62 cells after 3 days by fluorescence assay; details: UACC-62, 72 h
[2] = test system: NCI-H322M; test: Antiproliferative activity against human NCI-H322M cells after 3 days by fluorescence assay; details: 72 h
[3] = Antiproliferative activity against human SKOV3 cells after 3 days by fluorescence assay; details: SK-OV-3, 72 h
[4] = test system: NCI-H23; test: Antiproliferative activity against human NCI-H23 cells after 3 days by fluorescence assay; details: NCI-H23, 72 h
[5] = test system: SK-MEL-28; test: Antiproliferative activity against human SK-MEL-28 cells after 3 days by fluorescence assay; details: SK-MEL-28, 72 h
[6] = test system: MDA-MB-468; test: Antiproliferative activity against human MDA-MB-468 cells after 3 days by fluorescence assay; details: MDA-MB-468, 72 h
[7] = test system: A549; test: Antiproliferative activity against human A549 cells after 3 days by fluorescence assay; details: A549, 72 h
[8] = test system: SK-MEL-5; test: Antiproliferative activity against human SK-MEL-5 cells after 3 days by fluorescence assay; details: SK-MEL-5, 72 h
[9] = Antiproliferative activity against human PC3 cells after 3 days by fluorescence assay; details: PC-3, 72 h
[10] = test system: IGROV-1; test: Antiproliferative activity against human IGROV1 cells after 3 days by fluorescence assay; details: IGROV-1, 72 h
[11] = Antiproliferative activity against human LOXIMVI cells after 3 days by fluorescence assay; details: LOX IMVI, 72 h
[12] = Antiproliferative activity against human UO31 cells after 3 days by fluorescence assay; details: UO-31, 72 h
[13] = Antiproliferative activity against human HCC2998 cells after 3 days by fluorescence assay; details: HCC 2998, 72 h
[14] = test system: DU-145; test: Antiproliferative activity against human DU145 cells after 3 days by fluorescence assay; details: DU-145, 72 h
[15] = Antiproliferative activity against human OVCAR5 cells after 3 days by fluorescence assay; details: OVCAR-5, 72 h
[16] = test system: HOP-62; test: Antiproliferative activity against human HOP62 cells after 3 days by fluorescence assay; details: HOP-62, 72 h
[17] = test system: SN12C; test: Antiproliferative activity against human SN12C cells after 3 days by fluorescence assay; details: 72 h
[18] = test system: NCI-H460; test: Antiproliferative activity against human NCI-H460 cells after 3 days by fluorescence assay; details: NCI-H460, 72 h
[19] = test system: NCI-H226; test: Antiproliferative activity against human NCI-H226 cells after 3 days by fluorescence assay; details: NCI-H226, 72 h
[20] = test system: 786-0; test: Antiproliferative activity against human 786-0 cells after 3 days by fluorescence assay; details: 786-0, 72 h
[21] = test system: SK-MEL-2; test: Antiproliferative activity against human SK-MEL-2 cells after 3 days by fluorescence assay; details: SK-MEL-2, 72 h
[22] = Antiproliferative activity against human COLO205 cells after 3 days by fluorescence assay; details: COLO 205, 72 h
[23] = Antiproliferative activity against human NCI-ADR-RES cells after 3 days by fluorescence assay; details: 72 h
[24] = Antiproliferative activity against human OVCAR8 cells after 3 days by fluorescence assay; details: OVCAR-8, 72 h
[25] = Antiproliferative activity against human HOP92 cells after 3 days by fluorescence assay; details: HOP-92, 72 h
[26] = test system: M14; test: Antiproliferative activity against human M14 cells after 3 days by fluorescence assay; details: M14, 72 h
[27] = test system: KM12; test: Antiproliferative activity against human KM12 cells after 3 days by fluorescence assay; details: KM12, 72 h
[28] = test system: HT-29; test: Antiproliferative activity against human HT-29 cells after 3 days by fluorescence assay; details: HT-29, 72 h
[29] = test system: U-251; test: Antiproliferative activity against human U251 cells after 3 days by fluorescence assay; details: U-251, 72 h
[30] = test system: SW-620; test: Antiproliferative activity against human SW620 cells after 3 days by fluorescence assay; details: SW-620, 72 h
[31] = Antiproliferative activity against human HCT15 cells after 3 days by fluorescence assay; details: HCT-15, 72 h
[32] = test system: SNB-19; test: Antiproliferative activity against human SNB19 cells after 3 days by fluorescence assay; details: SNB-19, 72 h
[33] = test system: MCF7; test: Antiproliferative activity against human MCF7 cells after 3 days by fluorescence assay; details: MCF7, 72 h
[34] = test system: Malme-3M; test: Antiproliferative activity against human MALME-3M cells after 3 days by fluorescence assay; details: 72 h
[35] = test system: MDA-MB-435; test: Antiproliferative activity against human MDA-MB-435 cells after 3 days by fluorescence assay; details: MDA-MB-435, 72 h
[36] = test system: SNB-75; test: Antiproliferative activity against human SNB75 cells after 3 days by fluorescence assay; details: SNB-75, 72 h
[37] = Antiproliferative activity against human RXF393 cells after 3 days by fluorescence assay; details: RXF 393, 72 h
[38] = Antiproliferative activity against human Hs 578T cells after 3 days by fluorescence assay; details: 72 h
[39] = Antiproliferative activity against human UACC257 cells after 3 days by fluorescence assay; details: UACC-257, 72 h
[40] = Antiproliferative activity against human SF295 cells after 3 days by fluorescence assay; details: SF-295, 72 h
[41] = test system: HL-60(TB); test: Antiproliferative activity against human HL-60(TB) cells after 3 days by fluorescence assay; details: HL-60, 72 h
[42] = test system: CAKI-1; test: Antiproliferative activity against human CAKI-1 cells after 3 days by fluorescence assay; details: CAKI-1, 72 h
[43] = test system: NCI-H522; test: Antiproliferative activity against human NCI-H522 cells after 3 days by fluorescence assay; details: NCI-H522, 72 h
[44] = test system: TK-10; test: Antiproliferative activity against human TK10 cells after 3 days by fluorescence assay; details: TK-10, 72 h
[45] = Antiproliferative activity against human BT549 cells after 3 days by fluorescence assay; details: BT-549, 72 h
[46] = Antiproliferative activity against human SF539 cells after 3 days by fluorescence assay; details: SF-539, 72 h
[47] = test system: K562; test: Antiproliferative activity against human K562 cells after 3 days by fluorescence assay; details: K562, 72 h
[48] = test system: SF-268; test: Antiproliferative activity against human SF268 cells after 3 days by fluorescence assay; details: SF-268, 72 h
[49] = test system: MDA-MB-231; test: Antiproliferative activity against human MDA-MB-231 cells after 3 days by fluorescence assay; details: MDA-MB-231, 72 h
[50] = test system: A498; test: Antiproliferative activity against human A498 cells after 3 days by fluorescence assay; details: A498, 72 h
[51] = Antiproliferative activity against human HCT116 cells after 3 days by fluorescence assay; details: HCT-116, 72 h
[52] = Antiproliferative activity against human RPMI8226 cells after 3 days by fluorescence assay; details: RPMI-8226, 72 h
[53] = Antiproliferative activity against human OVCAR4 cells after 3 days by fluorescence assay; details: OVCAR-4, 72 h
[54] = test system: CCRF-CEM; test: Antiproliferative activity against human CCRF-CEM cells after 3 days by fluorescence assay; details: 72 h
[55] = test system: ACHN; test: Antiproliferative activity against human ACHN cells after 3 days by fluorescence assay; details: 72 h
[56] = test system: SR; test: Antiproliferative activity against human SR cells after 3 days by fluorescence assay; details: 72 h
[57] = Antiproliferative activity against human OVCAR3 cells after 3 days by fluorescence assay; details: OVCAR-3, 72 h
[58] = Antiproliferative activity against human MOLT4 cells after 3 days by fluorescence assay; details: MOLT-4, 72 h
[59] = Antiproliferative activity against human EKVX cells after 3 days by fluorescence assay; details: 72 h
[60] = test system: T47D; test: Antiproliferative activity against human T47D cells after 3 days by fluorescence assay; details: 72 h

COc1cccc(-c2noc(Nc3ccc(C)cc3)n2)c1OC
GI50 [1]: 2880 nM | GI50 [2]: 5130 nM | GI50 [3]: 2880 nM | GI50 [4]: 1740 nM | GI50 [5]: 2340 nM | GI50 [6]: 1100 nM | GI50 [7]: 3160 nM | GI50 [8]: 3090 nM | GI50 [9]: 3800 nM | GI50 [10]: 4790 nM | GI50 [11]: 3090 nM | GI50 [12]: 5370 nM | GI50 [13]: 3630 nM | GI50 [14]: 3160 nM | GI50 [15]: 11200 nM | GI50 [16]: 2290 nM | GI50 [17]: 6030 nM | GI50 [18]: 2090 nM | GI50 [19]: 7760 nM | GI50 [20]: 4790 nM | GI50 [21]: 2290 nM | GI50 [22]: 2570 nM | GI50 [23]: 562 nM | GI50 [24]: 3980 nM | GI50 [25]: 3890 nM | GI50 [26]: 1350 nM | GI50 [27]: 1000 nM | GI50 [28]: 525 nM | GI50 [29]: 3720 nM | GI50 [30]: 603 nM | GI50 [31]: 1780 nM | GI50 [32]: 3800 nM | GI50 [33]: 1580 nM | GI50 [34]: 1740 nM | GI50 [35]: 219 nM | GI50 [36]: 1910 nM | GI50 [37]: 1320 nM | GI50 [38]: 3470 nM | GI50 [39]: 2820 nM | GI50 [40]: 1100 nM | GI50 [41]: 676 nM | GI50 [42]: 3160 nM | GI50 [43]: 891 nM | GI50 [44]: 4470 nM | GI50 [45]: 6170 nM | GI50 [46]: 1200 nM | GI50 [47]: 245 nM | GI50 [48]: 4790 nM | GI50 [49]: 10700 nM | GI50 [50]: 2400 nM | GI50 [51]: 1150 nM | GI50 [52]: 2950 nM | GI50 [53]: 6310 nM | GI50 [54]: 2340 nM | GI50 [55]: 7080 nM | GI50 [56]: 234 nM | GI50 [57]: 1150 nM | GI50 [58]: 4680 nM | GI50 [59]: 5500 nM | GI50 [60]: 3630 nM
